Test results taken from ChEMBL document CHEMBL1201862, “PubChem BioAssay data set” (2004).
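Step 1: Grow cells in 96-well plates. Step 2: Expose to compound for 48 hours at 5 concentrations. Step 3: Interpolate endpoints linearly; if unreached, use highest concentration. GI50: concentration for 50% inhibition of growth.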 Active and inactive are the calls of the source. Cut-off read from the data, not from the text of the source: active = GI50 up to about 1.1 µM and inactive = higher.

How the values were obtained:
Experiment in all cases: DTP human tumour cell line panel, 48 h
786-0 = test system: 786-0
A498 = test system: A498
A549 = test system: A549
ACHN = test system: ACHN
HCC 2998 = test system: HCC 2998
HT-29 = test system: HT-29
IGROV-1 = test system: IGROV-1
Malme-3M = test system: Malme-3M
NCI-H23 = test system: NCI-H23
NCI-H522 = test system: NCI-H522
OVCAR-4 = test system: OVCAR-4
RPMI-8226 = test system: RPMI-8226
RXF 393 = test system: RXF 393
SK-MEL-2 = test system: SK-MEL-2
SK-MEL-5 = test system: SK-MEL-5
TK-10 = test system: TK-10
UACC-257 = test system: UACC-257

Measured: GI50

CC1=NOC(=O)/C1=C/c1cccc2ccccc12
inactive: 786-0 > 100 µM | A498 > 100 µM | A549 > 100 µM | ACHN > 100 µM | HCC 2998 > 100 µM | HT-29 > 100 µM | IGROV-1 > 100 µM | Malme-3M > 100 µM | NCI-H23 > 100 µM | NCI-H522 > 100 µM | OVCAR-4 > 100 µM | RPMI-8226 > 100 µM | RXF 393 > 100 µM | SK-MEL-2 > 100 µM | SK-MEL-5 > 100 µM | TK-10 > 100 µM | UACC-257 > 100 µM

Cc1ccccc1NC(=O)C(=O)CC(=O)C1CCOC1=O (stereo unspecified)
inactive: 786-0 > 100 µM | A498 > 100 µM | A549 > 100 µM | ACHN > 100 µM | HCC 2998 > 100 µM | HT-29 > 10 µM | IGROV-1 > 100 µM | Malme-3M > 100 µM | NCI-H23 > 100 µM | NCI-H522 > 100 µM | OVCAR-4 > 100 µM | RPMI-8226 > 100 µM | RXF 393 > 100 µM | SK-MEL-2 > 100 µM | SK-MEL-5 > 100 µM | TK-10 > 100 µM | UACC-257 > 100 µM

Cn1cnc([N+](=O)[O-])c1Sc1n[nH]c(-c2ccc(Cl)cc2)n1
inactive: 786-0 20.3 µM | A498 22.4 µM | A549 25.3 µM | ACHN 18.7 µM | HCC 2998 21.3 µM | HT-29 19.1 µM | IGROV-1 20 µM | Malme-3M 11.1 µM | NCI-H23 18.6 µM | NCI-H522 11.7 µM | OVCAR-4 18.3 µM | RPMI-8226 22.1 µM | RXF 393 13.3 µM | SK-MEL-2 13.6 µM | SK-MEL-5 15.7 µM | TK-10 17.7 µM | UACC-257 17.1 µM

O=C(CCN1CCCCC1)C(=Cc1ccccc1)C(=O)CCN1CCCCC1
inactive: 786-0 7.28 µM | A498 > 100 µM | A549 > 100 µM | ACHN 9.73 µM | HCC 2998 > 100 µM | HT-29 6.68 µM | IGROV-1 > 100 µM | Malme-3M > 10 µM | NCI-H23 > 59.8 µM | NCI-H522 1.23 µM | OVCAR-4 > 100 µM | RPMI-8226 20.8 µM | RXF 393 6.52 µM | SK-MEL-2 > 100 µM | SK-MEL-5 > 100 µM | UACC-257 6.75 µM

O=C1OCC/C1=N/O
inactive: 786-0 > 100 µM | A498 > 100 µM | A549 > 100 µM | ACHN > 100 µM | HCC 2998 > 100 µM | HT-29 > 100 µM | IGROV-1 > 100 µM | Malme-3M > 100 µM | NCI-H23 > 100 µM | NCI-H522 > 100 µM | OVCAR-4 > 100 µM | RPMI-8226 > 100 µM | RXF 393 > 100 µM | SK-MEL-2 > 100 µM | SK-MEL-5 > 100 µM | TK-10 > 100 µM | UACC-257 > 100 µM

COc1ccc(/C=C(\NC(=O)c2ccccc2)c2nc3ccccc3[nH]2)cc1OC
inactive: 786-0 > 100 µM | A498 > 100 µM | A549 > 100 µM | ACHN > 100 µM | HCC 2998 > 100 µM | HT-29 > 100 µM | IGROV-1 > 100 µM | Malme-3M > 100 µM | NCI-H23 > 100 µM | NCI-H522 > 100 µM | OVCAR-4 > 100 µM | RPMI-8226 80.5 µM | RXF 393 > 100 µM | SK-MEL-2 > 100 µM | SK-MEL-5 > 100 µM | TK-10 > 100 µM | UACC-257 > 100 µM

CCOC(=O)/C(=C\c1ccc(N(CCC#N)CCC#N)cc1C)NC(=O)/C=C/c1ccccc1
inactive: 786-0 > 100 µM | A498 > 100 µM | A549 > 100 µM | ACHN > 100 µM | HCC 2998 62.2 µM | HT-29 > 100 µM | IGROV-1 > 100 µM | Malme-3M > 100 µM | NCI-H23 > 100 µM | NCI-H522 > 100 µM | RPMI-8226 > 100 µM | RXF 393 > 100 µM | SK-MEL-2 > 100 µM | SK-MEL-5 > 100 µM | TK-10 > 100 µM | UACC-257 > 100 µM

CC1(C)O[C@@H](CCl)C[C@H](C#N)O1
inactive: 786-0 > 100 µM | A498 > 100 µM | A549 > 100 µM | ACHN > 100 µM | HCC 2998 > 100 µM | HT-29 > 100 µM | IGROV-1 > 100 µM | Malme-3M > 100 µM | NCI-H23 > 100 µM | NCI-H522 > 100 µM | OVCAR-4 > 100 µM | RPMI-8226 > 100 µM | RXF 393 > 100 µM | SK-MEL-2 > 100 µM | SK-MEL-5 > 100 µM | TK-10 > 100 µM | UACC-257 > 100 µM

COC(=O)c1nc(NN)cc(O)c1CCCCCc1c(O)nc(NN)nc1C(=O)OC
inactive: 786-0 > 100 µM | A498 > 100 µM | A549 > 100 µM | ACHN > 100 µM | HCC 2998 > 100 µM | HT-29 > 100 µM | IGROV-1 > 100 µM | Malme-3M > 100 µM | NCI-H23 > 100 µM | NCI-H522 > 100 µM | OVCAR-4 > 100 µM | RPMI-8226 72.4 µM | RXF 393 > 100 µM | SK-MEL-2 > 100 µM | SK-MEL-5 > 100 µM | TK-10 > 100 µM | UACC-257 > 100 µM

CC(C)=CC(=O)CC(=O)C(=O)Nc1ccc(Cl)c(Cl)c1
inactive: 786-0 > 100 µM | A498 > 100 µM | A549 > 100 µM | ACHN > 100 µM | HCC 2998 > 100 µM | HT-29 > 100 µM | IGROV-1 > 100 µM | Malme-3M > 100 µM | NCI-H23 > 100 µM | NCI-H522 > 100 µM | OVCAR-4 > 100 µM | RPMI-8226 > 100 µM | RXF 393 > 100 µM | SK-MEL-2 > 100 µM | TK-10 > 100 µM | UACC-257 > 100 µM

CC(C)(C)[Si](Nc1ccccc1)(c1ccccc1)c1ccccc1
inactive: 786-0 15 µM | A498 17.3 µM | A549 13 µM | ACHN 16.2 µM | HCC 2998 16.1 µM | HT-29 14.7 µM | IGROV-1 14.7 µM | Malme-3M 22.1 µM | NCI-H23 16.9 µM | NCI-H522 > 10 µM | OVCAR-4 13.9 µM | RPMI-8226 16.8 µM | RXF 393 13.6 µM | SK-MEL-2 18.4 µM | SK-MEL-5 17.5 µM | TK-10 14.5 µM | UACC-257 14.9 µM

O=C(NCCCC/N=c1/cccccc1NCCCCNC(=O)OCc1ccccc1)OCc1ccccc1
inactive: 786-0 16.4 µM | A498 > 10 µM | A549 26.5 µM | ACHN 23.2 µM | HCC 2998 15.7 µM | HT-29 6.04 µM | IGROV-1 20.9 µM | Malme-3M 20.4 µM | NCI-H23 19.3 µM | NCI-H522 17.2 µM | OVCAR-4 18.9 µM | RPMI-8226 13 µM | RXF 393 17.8 µM | SK-MEL-2 18.8 µM | SK-MEL-5 16.4 µM | TK-10 19.2 µM | UACC-257 15.2 µM
